Experimental data: US7056339B2, “Drug delivery platform” (The Board of Trustees of the Leland Stanford Junior …, priority 2001, dated 2006)

Assays:
[1] = system: rabbit infra-renal abdominal aorta, in-stent plaque; assay: Morphological analysis of intima/media ratios 28 days after in vivo stent implantation; design: species or system New Zealand White rabbits; conditions: 28 days after stent implantation, mean ± SE
Procedure: Age-matched adult male New Zealand White rabbits weighing 3.8–4.2 kg were used in accordance to NIH and institutional guidelines (n=6 animals per group). Under general anesthesia, an arteriotomy at the femoral artery was performed and a 5 Fr introducing sheath was placed. Under fluoroscopic guidance, aseptically prepared channeled stents filled with blank or angiostatin microspheres were deployed in the infra-renal abdominal aorta. Stents were post-dilated at 8 atm with a 5 mm angioplasty balloon (Jupiter, Cordis, Miami, Fla.) to a final lumen size of 125% above the baseline with care taken to ensure that […] were present within the stent segment. Pre- and post-deployment digital subtraction angiograms were recorded for the blank procedural control and angiostatin treatment groups. The rabbits were fed a 0.25% cholesterol diet after the intervention. Early 7 day follow up (n=3 per group) or late 28 day follow-up (n=3 per group) animals underwent total-body perfusion-fixation as previously described with immediate excision of the aortic segment containing stent. The 7 day aortic specimens were excised longitudinally and stents were removed. The resulting aortic segments were divided into two equal subsegments. One subsegment of each underwent fixation in 10% neutral buffered formalin and embedded in paraffin for light microscopic and morphologic analysis. The remaining subsegment of each specimen was snap frozen for molecular assay. The 28 days aortic specimens were fixed in 10% neutral buffered formalin and were embedded in PolyBed (Polysciences, Warrington, Pa.) for light microscopic and morphologic analysis.
The seven day analysis consisted of thick (5 μm) cross sections of the aortic wall were obtained from the paraffin-embedded specimens (n=9 sections per group). An elastic von Gieson-Masson trichrome or Elastica van Gieson-Hematoxylin double stain was performed for light microscopic analysis. For the 28 day specimen analysis (n=3 animals per group), each plastic-embedded aorta with stents was cut into five pieces longitudinally equal lengths. These pieces were stained by modified Verhoff elastic staining. Five cross sectional images of the stained aorta were obtained (n=15 sections per group) from one side of plastic pieces. […] Using Image Pro Plus software (Media Cybernetics, Silver Spring, Md.), the cross-sectional area of the intima and the media were determined by blinded observers. The ratio of intima area to media area subsequently tabulated for each, with the results presented as Table 2. Mean, standard error, and significance were determined.

[2] = system: rabbit infra-renal abdominal aorta, in-stent plaque; assay: Local plaque stability parameters: macrophage infiltrate and endothelial density (CD31), 7 days; assay type: in vivo, New Zealand White rabbits; conditions: 7 days after stent implantation, stents releasing angiostatin, mean ± SE
Procedure: Age-matched adult male New Zealand White rabbits weighing 3.8–4.2 kg were used in accordance to NIH and institutional guidelines (n=6 animals per group). Under general anesthesia, an arteriotomy at the femoral artery was performed and a 5 Fr introducing sheath was placed. Under fluoroscopic guidance, aseptically prepared channeled stents filled with blank or angiostatin microspheres were deployed in the infra-renal abdominal aorta. Stents were post-dilated at 8 atm with a 5 mm angioplasty balloon (Jupiter, Cordis, Miami, Fla.) to a final lumen size of 125% above the baseline with care taken to ensure that […] were present within the stent segment. Pre- and post-deployment digital subtraction angiograms were recorded for the blank procedural control and angiostatin treatment groups. The rabbits were fed a 0.25% cholesterol diet after the intervention. […]
Cross sections at the 7 day time point evaluated above were obtained (two per segment) from each vessel and incubated with a primary monoclonal antibody to rabbit macrophage (clone RAM-11, 1/800 dilution, DAKO, Carpinteria, Calif.). The number of positive cells per cross section was counted by a blinded observer. […] Mean and standard error were tabulated for each group with significance determined as before and p values as reported.

alpha-1-antitrypsin [AAT]
Intima to media ratio ([1]; stents releasing an elastase inhibitor (40 mg alpha-1-antitrypsin loaded), P = 0.0001 vs. controls): 1.322 ± 0.060

TGFβ1: transforming growth factor β1 (Oncogene Research)
Intima to media ratio ([1]; stents releasing TGFβ1 (2.0 μg loaded), P = 0.004 vs. controls): 1.803 ± 0.053

angiostatin
Intima to media ratio ([1]; stents releasing angiostatin (2.0 mg loaded in microspheres), P = 0.003 vs. controls): 1.610 ± 0.050 | Macrophages (number of cross-sectional macrophages) [2]: 34.889 ± 3.948 P = 0.0011 cells per cross section | CD31 (number of plaque microvessels) ([2]; P < 0.05 vs. controls): 0.111 ± 0.111

FGF: acidic FGF (Calbiochem) with endotoxin-free heparin as a stabilizer
Intima to media ratio ([1]; stents releasing acidic FGF (200 ng with 1280 units heparin as stabilizer), P = 0.004 vs. controls): 1.634 ± 0.051

B1: Fas ligand: pro-apoptotic factor Fas ligand (Oncogene Research) (protein, UniProt P48023 130-281, looked up)
Tumor necrosis factor ligand …: QIGHPSPPPEKKELRKVAHLTGKSNSRSMPLEWEDTYGIVLLSGVKYKKGGLVINETGLYFVYSKVYFRGQSCNNLPLSHKVYMRNSKYPQDLVMMEGKMMSYCTTGQMWARSSYLGAVFNLTSADHLYVNVSELSLVNFEESQTFFGLYKL
Intima to media ratio ([1]; stents releasing Fas Ligand (10 μg loaded), P < 0.05 vs. controls): 1.356 ± 0.053
